{"source": "PubChem BioAssay AID652090", "about": "(Broad Institute, 2013)", "assay_in_all_cases": "cellular target proteins captured by immobilized compound – cell lysate, INS-1E, SILAC competition, mass spectrometry, mechanism study for beta-cell protection project, late-stage follow-up (AID 652090)", "key": {"LOC303448": {"test_system": "LOC303448", "conditions": "INS-1E SILAC affinity pulldown, competition MS ratio"}, "Blvrb": {"test_system": "Blvrb", "conditions": "INS-1E SILAC affinity pulldown, competition MS ratio"}, "Usp9x": {"test_system": "Usp9x", "conditions": "INS-1E SILAC affinity pulldown, competition MS ratio"}, "Mcm6 [1]": {"target": "Mcm6 (UniProt Q62724)", "sequence (Q62724 whole entry, looked up)": "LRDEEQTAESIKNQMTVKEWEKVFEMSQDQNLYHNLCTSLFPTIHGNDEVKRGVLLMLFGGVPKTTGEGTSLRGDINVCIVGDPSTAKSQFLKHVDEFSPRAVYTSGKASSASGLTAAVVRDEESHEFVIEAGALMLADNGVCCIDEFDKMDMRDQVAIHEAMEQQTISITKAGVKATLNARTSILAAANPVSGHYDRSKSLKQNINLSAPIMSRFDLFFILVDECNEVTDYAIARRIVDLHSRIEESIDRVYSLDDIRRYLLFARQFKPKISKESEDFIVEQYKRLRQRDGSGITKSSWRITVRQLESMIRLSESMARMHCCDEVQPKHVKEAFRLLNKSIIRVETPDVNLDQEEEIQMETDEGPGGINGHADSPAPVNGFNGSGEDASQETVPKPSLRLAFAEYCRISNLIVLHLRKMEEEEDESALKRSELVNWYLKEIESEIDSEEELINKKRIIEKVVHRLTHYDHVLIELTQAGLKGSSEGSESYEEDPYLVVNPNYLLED", "conditions": "INS-1E SILAC affinity pulldown, competition MS ratio, stronger effect = higher value"}, "Xpo1 [2]": {"test_system": "Xpo1", "conditions": "INS-1E SILAC affinity pulldown, competition MS ratio, enrichment significance, stronger effect = lower value"}, "Gapdh": {"test_system": "Gapdh", "conditions": "INS-1E SILAC affinity pulldown, competition MS ratio, enrichment significance, stronger effect = lower value"}, "Tbc1d15": {"test_system": "Tbc1d15", "conditions": "INS-1E SILAC affinity pulldown, competition MS ratio"}, "Lrpprc [3]": {"target": "Lrpprc (UniProt Q5SGE0)", "conditions": "INS-1E SILAC affinity pulldown, competition MS ratio, stronger effect = higher value"}, "Cand2 [4]": {"target": "Cand2 (UniProt Q9R0L4)", "sequence (Q9R0L4 whole entry, looked up)": "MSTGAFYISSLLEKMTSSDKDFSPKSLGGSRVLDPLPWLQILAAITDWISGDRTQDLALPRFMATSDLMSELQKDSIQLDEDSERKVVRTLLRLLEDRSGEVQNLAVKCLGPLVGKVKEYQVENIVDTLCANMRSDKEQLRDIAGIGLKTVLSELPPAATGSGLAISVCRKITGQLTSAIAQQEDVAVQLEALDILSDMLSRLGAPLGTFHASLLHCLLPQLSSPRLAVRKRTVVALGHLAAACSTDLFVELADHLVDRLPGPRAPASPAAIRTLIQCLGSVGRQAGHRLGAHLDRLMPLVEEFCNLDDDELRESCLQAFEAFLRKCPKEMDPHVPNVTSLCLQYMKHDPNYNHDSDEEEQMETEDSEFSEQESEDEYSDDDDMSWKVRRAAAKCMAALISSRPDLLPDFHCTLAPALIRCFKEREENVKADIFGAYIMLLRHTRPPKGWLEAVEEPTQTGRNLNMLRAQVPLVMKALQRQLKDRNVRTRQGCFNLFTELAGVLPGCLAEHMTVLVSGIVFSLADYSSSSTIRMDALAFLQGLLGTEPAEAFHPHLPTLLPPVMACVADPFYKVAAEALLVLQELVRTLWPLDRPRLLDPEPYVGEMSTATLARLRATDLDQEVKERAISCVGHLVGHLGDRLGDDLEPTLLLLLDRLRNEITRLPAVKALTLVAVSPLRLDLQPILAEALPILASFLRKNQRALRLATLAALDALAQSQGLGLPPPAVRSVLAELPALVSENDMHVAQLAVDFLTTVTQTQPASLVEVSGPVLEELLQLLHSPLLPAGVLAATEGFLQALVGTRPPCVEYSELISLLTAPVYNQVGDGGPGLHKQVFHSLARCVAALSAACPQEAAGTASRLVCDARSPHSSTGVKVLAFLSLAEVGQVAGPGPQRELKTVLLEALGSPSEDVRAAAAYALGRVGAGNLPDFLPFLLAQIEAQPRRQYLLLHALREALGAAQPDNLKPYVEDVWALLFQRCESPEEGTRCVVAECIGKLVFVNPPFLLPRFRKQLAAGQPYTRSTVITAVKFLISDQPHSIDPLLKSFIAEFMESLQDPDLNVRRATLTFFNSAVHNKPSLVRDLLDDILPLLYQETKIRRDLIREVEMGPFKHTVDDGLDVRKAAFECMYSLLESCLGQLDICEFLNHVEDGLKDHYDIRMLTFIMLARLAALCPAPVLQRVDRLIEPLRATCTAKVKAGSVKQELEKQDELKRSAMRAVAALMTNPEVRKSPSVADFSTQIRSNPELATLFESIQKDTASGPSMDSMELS", "conditions": "INS-1E SILAC affinity pulldown, competition MS ratio, stronger effect = higher value"}, "[5]": {"target": "Adenosylhomocysteinase (Rattus norvegicus) (UniProt P10760)", "sequence (P10760 whole entry, looked up)": "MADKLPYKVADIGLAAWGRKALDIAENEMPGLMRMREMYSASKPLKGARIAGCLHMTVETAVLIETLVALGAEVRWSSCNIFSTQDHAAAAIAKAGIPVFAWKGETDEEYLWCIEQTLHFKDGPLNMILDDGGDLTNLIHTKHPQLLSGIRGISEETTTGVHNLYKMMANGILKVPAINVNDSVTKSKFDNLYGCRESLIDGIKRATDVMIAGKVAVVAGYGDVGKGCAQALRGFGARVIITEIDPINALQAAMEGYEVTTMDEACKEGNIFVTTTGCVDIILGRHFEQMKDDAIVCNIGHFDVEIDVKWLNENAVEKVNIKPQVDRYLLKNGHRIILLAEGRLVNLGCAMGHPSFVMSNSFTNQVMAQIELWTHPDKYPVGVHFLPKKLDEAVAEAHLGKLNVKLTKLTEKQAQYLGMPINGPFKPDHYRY", "conditions": "INS-1E SILAC affinity pulldown, competition MS ratio; Ahcy; stronger effect = higher value"}, "[6]": {"target": "Glyceraldehyde-3-phosphate dehydrogenase (Rattus norvegicus) (UniProt P04797)", "sequence (P04797 whole entry, looked up)": "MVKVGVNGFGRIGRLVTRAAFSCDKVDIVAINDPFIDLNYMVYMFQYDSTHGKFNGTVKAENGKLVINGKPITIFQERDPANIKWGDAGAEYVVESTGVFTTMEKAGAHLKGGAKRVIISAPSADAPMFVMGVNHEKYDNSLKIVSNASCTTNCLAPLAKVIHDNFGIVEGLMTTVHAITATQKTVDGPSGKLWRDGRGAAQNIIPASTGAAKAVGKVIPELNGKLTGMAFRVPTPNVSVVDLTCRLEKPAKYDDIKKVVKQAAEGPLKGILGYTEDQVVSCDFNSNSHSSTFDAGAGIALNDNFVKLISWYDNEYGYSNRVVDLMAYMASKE", "conditions": "INS-1E SILAC affinity pulldown, competition MS ratio; Gapdh; stronger effect = higher value"}, "Retsat [7]": {"test_system": "Retsat", "conditions": "INS-1E SILAC affinity pulldown, competition MS ratio, enrichment significance, stronger effect = lower value"}, "Cand2 [8]": {"test_system": "Cand2", "conditions": "INS-1E SILAC affinity pulldown, competition MS ratio, enrichment significance, stronger effect = lower value"}, "Mcm6 [9]": {"test_system": "Mcm6", "conditions": "INS-1E SILAC affinity pulldown, competition MS ratio, enrichment significance, stronger effect = lower value"}, "Ipo4": {"test_system": "Ipo4", "conditions": "INS-1E SILAC affinity pulldown, competition MS ratio"}, "Ipo9": {"test_system": "Ipo9", "conditions": "INS-1E SILAC affinity pulldown, competition MS ratio"}, "Lrpprc [10]": {"test_system": "Lrpprc", "conditions": "INS-1E SILAC affinity pulldown, competition MS ratio, enrichment significance, stronger effect = lower value"}, "Ap3b2": {"test_system": "Ap3b2", "conditions": "INS-1E SILAC affinity pulldown, competition MS ratio"}, "RGD1309903": {"test_system": "RGD1309903", "conditions": "INS-1E SILAC affinity pulldown, competition MS ratio"}, "Ahcy": {"test_system": "Ahcy", "conditions": "INS-1E SILAC affinity pulldown, competition MS ratio, enrichment significance, stronger effect = lower value"}, "Timm44 [11]": {"target": "Timm44 (UniProt O35094)", "sequence (O35094 whole entry, looked up)": "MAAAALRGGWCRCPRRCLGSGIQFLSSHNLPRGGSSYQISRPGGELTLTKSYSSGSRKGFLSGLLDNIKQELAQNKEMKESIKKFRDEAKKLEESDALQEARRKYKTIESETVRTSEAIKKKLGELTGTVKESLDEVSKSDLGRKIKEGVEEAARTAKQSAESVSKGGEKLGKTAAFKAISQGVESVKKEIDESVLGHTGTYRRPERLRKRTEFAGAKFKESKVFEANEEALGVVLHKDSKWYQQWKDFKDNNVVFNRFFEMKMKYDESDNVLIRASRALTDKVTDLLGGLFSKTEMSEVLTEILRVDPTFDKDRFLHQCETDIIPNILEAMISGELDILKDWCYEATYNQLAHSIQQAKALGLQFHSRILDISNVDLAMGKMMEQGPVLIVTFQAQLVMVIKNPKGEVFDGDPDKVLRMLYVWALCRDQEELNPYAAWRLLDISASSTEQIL", "conditions": "INS-1E SILAC affinity pulldown, competition MS ratio, stronger effect = higher value"}, "Retsat [12]": {"target": "Retsat (UniProt Q8VHE9)", "sequence (Q8VHE9 whole entry, looked up)": "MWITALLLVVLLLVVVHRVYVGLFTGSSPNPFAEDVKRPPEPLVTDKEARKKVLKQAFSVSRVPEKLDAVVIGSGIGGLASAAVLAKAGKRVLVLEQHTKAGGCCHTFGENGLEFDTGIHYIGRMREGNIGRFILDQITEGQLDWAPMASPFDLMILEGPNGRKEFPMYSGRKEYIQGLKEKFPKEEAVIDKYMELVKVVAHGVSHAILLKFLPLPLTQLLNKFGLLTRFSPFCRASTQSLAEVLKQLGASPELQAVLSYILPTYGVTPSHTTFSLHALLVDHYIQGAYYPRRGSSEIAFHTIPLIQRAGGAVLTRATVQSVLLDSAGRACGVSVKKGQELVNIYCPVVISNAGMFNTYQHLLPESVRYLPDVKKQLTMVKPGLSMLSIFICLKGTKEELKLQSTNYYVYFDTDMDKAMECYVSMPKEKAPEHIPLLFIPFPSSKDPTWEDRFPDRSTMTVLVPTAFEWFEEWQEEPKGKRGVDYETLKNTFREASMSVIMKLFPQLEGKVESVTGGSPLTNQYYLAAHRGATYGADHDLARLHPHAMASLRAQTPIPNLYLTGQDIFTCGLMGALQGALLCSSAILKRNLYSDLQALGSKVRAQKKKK", "conditions": "INS-1E SILAC affinity pulldown, competition MS ratio, stronger effect = higher value"}, "Cand1": {"test_system": "Cand1", "conditions": "INS-1E SILAC affinity pulldown, competition MS ratio"}, "Xpo1 [13]": {"target": "Xpo1 (UniProt Q80U96)", "sequence (Q80U96 whole entry, looked up)": "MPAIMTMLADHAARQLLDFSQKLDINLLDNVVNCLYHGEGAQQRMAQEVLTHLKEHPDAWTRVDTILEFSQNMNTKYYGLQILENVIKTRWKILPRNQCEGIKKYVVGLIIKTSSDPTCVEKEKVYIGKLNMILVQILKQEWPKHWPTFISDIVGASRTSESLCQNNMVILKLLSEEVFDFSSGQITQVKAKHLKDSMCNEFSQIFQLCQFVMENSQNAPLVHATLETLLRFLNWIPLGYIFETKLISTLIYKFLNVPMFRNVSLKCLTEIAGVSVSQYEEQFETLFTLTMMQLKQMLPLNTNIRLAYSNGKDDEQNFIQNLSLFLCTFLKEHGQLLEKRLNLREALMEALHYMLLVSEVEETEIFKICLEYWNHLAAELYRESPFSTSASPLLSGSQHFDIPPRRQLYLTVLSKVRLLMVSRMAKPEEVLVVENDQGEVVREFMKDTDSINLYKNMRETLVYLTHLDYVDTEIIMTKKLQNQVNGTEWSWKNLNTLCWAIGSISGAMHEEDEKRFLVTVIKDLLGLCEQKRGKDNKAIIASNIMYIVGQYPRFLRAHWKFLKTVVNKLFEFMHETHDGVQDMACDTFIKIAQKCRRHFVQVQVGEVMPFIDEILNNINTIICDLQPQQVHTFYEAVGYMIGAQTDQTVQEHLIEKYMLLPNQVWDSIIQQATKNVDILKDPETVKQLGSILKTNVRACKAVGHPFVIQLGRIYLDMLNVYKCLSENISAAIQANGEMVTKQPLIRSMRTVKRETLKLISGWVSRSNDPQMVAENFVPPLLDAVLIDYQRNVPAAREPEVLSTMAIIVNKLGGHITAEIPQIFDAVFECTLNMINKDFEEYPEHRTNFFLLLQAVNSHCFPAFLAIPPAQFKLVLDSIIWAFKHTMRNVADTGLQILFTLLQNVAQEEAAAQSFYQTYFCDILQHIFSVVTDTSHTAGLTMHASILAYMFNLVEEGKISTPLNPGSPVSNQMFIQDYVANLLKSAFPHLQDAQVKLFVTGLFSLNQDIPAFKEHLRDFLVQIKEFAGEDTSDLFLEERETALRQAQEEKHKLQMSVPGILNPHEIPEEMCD", "conditions": "INS-1E SILAC affinity pulldown, competition MS ratio, stronger effect = higher value"}, "Timm44 [14]": {"test_system": "Timm44", "conditions": "INS-1E SILAC affinity pulldown, competition MS ratio, enrichment significance, stronger effect = lower value"}, "[15]": {"conditions": "enrichment significance, stronger effect = lower value"}}, "data": [{"molecule": "C[C@@H]1CN([C@@H](C)CO)C(=O)c2cccc(NC(=O)Nc3cccc4ccccc34)c2O[C@H]1CN(C)S(=O)(=O)c1ccc2c(c1)OCCO2", "values": [{"measurement": "p-value", "setting": "LOC303448; [15]", "result": "3.33e-05"}, {"measurement": "log2 SILAC competition ratio", "setting": "LOC303448; stronger effect = higher value", "result": 0.74}, {"measurement": "p-value", "setting": "Blvrb; [15]", "result": "7.19e-23"}, {"measurement": "log2 SILAC competition ratio", "setting": "Blvrb; stronger effect = higher value", "result": 1.52}, {"measurement": "p-value", "setting": "Usp9x; [15]", "result": "2.07e-09"}, {"measurement": "log2 SILAC competition ratio", "setting": "Usp9x; stronger effect = higher value", "result": 0.98}, {"measurement": "log2 SILAC competition ratio", "setting": "Mcm6 [1]", "result": 1.63}, {"measurement": "p-value", "setting": "Xpo1 [2]", "result": 0.0109}, {"measurement": "p-value", "setting": "Gapdh", "result": "7.85e-05"}, {"measurement": "p-value", "setting": "Tbc1d15; [15]", "result": "6.97e-05"}, {"measurement": "log2 SILAC competition ratio", "setting": "Tbc1d15; stronger effect = higher value", "result": 0.72}, {"measurement": "log2 SILAC competition ratio", "setting": "Lrpprc [3]", "result": 0.64}, {"measurement": "log2 SILAC competition ratio", "setting": "Cand2 [4]", "result": 0.496}, {"measurement": "log2 SILAC competition ratio", "setting": "[5]", "result": 0.72}, {"measurement": "log2 SILAC competition ratio", "setting": "[6]", "result": 0.72}, {"measurement": "p-value", "setting": "Retsat [7]", "result": 0.00538}, {"measurement": "p-value", "setting": "Cand2 [8]", "result": 0.0511}, {"measurement": "p-value", "setting": "Mcm6 [9]", "result": "2.29e-26"}, {"measurement": "p-value", "setting": "Ipo4; [15]", "result": 0.000164}, {"measurement": "log2 SILAC competition ratio", "setting": "Ipo4; stronger effect = higher value", "result": 0.7}, {"measurement": "p-value", "setting": "Ipo9; [15]", "result": 0.00514}, {"measurement": "log2 SILAC competition ratio", "setting": "Ipo9; stronger effect = higher value", "result": 0.58}, {"measurement": "p-value", "setting": "Lrpprc [10]", "result": 0.00102}, {"measurement": "p-value", "setting": "Ap3b2; [15]", "result": "1.01e-06"}, {"measurement": "log2 SILAC competition ratio", "setting": "Ap3b2; stronger effect = higher value", "result": 0.84}, {"measurement": "p-value", "setting": "RGD1309903; [15]", "result": 0.000418}, {"measurement": "log2 SILAC competition ratio", "setting": "RGD1309903; stronger effect = higher value", "result": 0.67}, {"measurement": "p-value", "setting": "Ahcy", "result": "8.65e-05"}, {"measurement": "log2 SILAC competition ratio", "setting": "Timm44 [11]", "result": 0.52}, {"measurement": "log2 SILAC competition ratio", "setting": "Retsat [12]", "result": 0.58}, {"measurement": "p-value", "setting": "Cand1; [15]", "result": "7.49e-06"}, {"measurement": "log2 SILAC competition ratio", "setting": "Cand1; stronger effect = higher value", "result": 0.78}, {"measurement": "log2 SILAC competition ratio", "setting": "Xpo1 [13]", "result": 0.56}, {"measurement": "p-value", "setting": "Timm44 [14]", "result": 0.0266}]}]}
